Data reported in US10640506B2, “Cyclobutyl substituted pyrrolopyridine and pyrrolopyrimidines derivatives as JAK inhibitors” (Incyte Corporation, priority 2010, dated 2020).

Columns and labels:
[1] = biological target: human JAK1 (a.a. 837-1142) (Homo sapiens, UniProt P23458); assay: In vitro JAK kinase assay (HTRF, phosphorylation of biotinylated peptide), JAK1; format: biochemical; conditions: Table F; 1 mM ATP
Outline: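 His-tagged human JAK1 catalytic domain (a.a. 837-1142), baculovirus/insect-cell expressed, phosphorylates a biotinylated peptide for 1 h at room temperature. Reaction stopped with EDTA; product detected by HTRF (SA-APC, Eu-Py20, 40 min binding). IC50 reported as ranges.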

JAK2 (a.a. 828-1132) = biological target: T1, JAK2 (a.a. 828-1132) (Homo sapiens, UniProt O60674); assay: In vitro JAK kinase assay (HTRF, phosphorylation of biotinylated peptide), JAK2; format: biochemical; conditions: Table F; 1 mM ATP
T1 construct: JAK2 (a.a. 828-1132); His tag (N)
Outline: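 His-tagged catalytic domains of human JAK1 (a.a. 837-1142) and JAK2 (a.a. 828-1132), baculovirus-expressed, phosphorylate a biotinylated peptide for 1 hour at room temperature. Stopped with EDTA; detected by HTRF using SA-APC and Eu-Py20 antibody after 40 min binding; values binned as ranges.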

human JAK1 (a.a. 837-1142), sequence (P23458 849-1154): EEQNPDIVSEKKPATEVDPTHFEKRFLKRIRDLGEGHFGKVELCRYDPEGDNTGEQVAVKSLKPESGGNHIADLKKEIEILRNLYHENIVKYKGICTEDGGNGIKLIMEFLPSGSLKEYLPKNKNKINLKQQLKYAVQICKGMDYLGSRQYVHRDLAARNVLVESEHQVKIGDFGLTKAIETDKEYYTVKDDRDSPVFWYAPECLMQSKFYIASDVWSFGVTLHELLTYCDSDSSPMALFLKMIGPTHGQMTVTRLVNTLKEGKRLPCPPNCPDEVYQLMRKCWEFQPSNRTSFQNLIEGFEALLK
T1 sequence (O60674 828-1132): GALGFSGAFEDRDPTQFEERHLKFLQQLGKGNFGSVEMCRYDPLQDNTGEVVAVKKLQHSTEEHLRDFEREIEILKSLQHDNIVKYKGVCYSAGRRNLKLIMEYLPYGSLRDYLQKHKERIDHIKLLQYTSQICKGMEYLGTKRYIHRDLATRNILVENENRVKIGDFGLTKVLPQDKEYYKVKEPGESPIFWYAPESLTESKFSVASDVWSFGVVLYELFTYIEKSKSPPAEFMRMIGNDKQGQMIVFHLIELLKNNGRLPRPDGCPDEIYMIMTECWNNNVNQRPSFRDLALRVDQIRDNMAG

| SMILES | IC50 [1] [nM] | IC50 (JAK2 (a.a. 828-1132)) [nM] |
| --- | --- | --- |
| COCc1cc(C(=O)N2CCN([C@H]3C[C@](CC#N)(n4cc(-c5ncnc6[nH]ccc56)cn4)C3)CC2)nc(C(F)(F)F)n1 [Example 60, {trans-3-(4-{[6-(methoxymethyl)-2-(trifluoromethyl)pyrimidin-4-yl]carbonyl}piperazin-1-yl)-1-[4-(7H-pyrrolo[2,3-d]pyrimidin-4-yl)-1H-pyrazol-1-yl]cyclobutyl}acetonitrile] | < 10 | 25 to 100 |
| N#CC[C@]1(n2cc(-c3ncnc4[nH]ccc34)cn2)C[C@H](N2CCN(C(=O)c3cc(C4(N)CCC4)nc(C(F)(F)F)n3)CC2)C1 [Example 61, {trans-3-(4-{[6-(1-aminocyclobutyl)-2-(trifluoromethyl)pyrimidin-4-yl]carbonyl}piperazin-1-yl)-1-[4-(7H-pyrrolo[2,3-d]pyrimidin-4-yl)-1H-pyrazol-1-yl]cyclobutyl}acetonitrile] | < 10 | < 10 |
| N#CC[C@]1(n2cc(-c3ncnc4[nH]ccc34)cn2)C[C@@H](N2CCN(C(=O)c3cc(C4(N)CCC4)nc(C(F)(F)F)n3)CC2)C1 [Example 62, {cis-3-(4-{[6-(1-aminocyclobutyl)-2-(trifluoromethyl)pyrimidin-4-yl]carbonyl}piperazin-1-yl)-1-[4-(7H-pyrrolo[2,3-d]pyrimidin-4-yl)-1H-pyrazol-1-yl]cyclobutyl}acetonitrile] | < 10 | < 10 |
| CN(C)C1(c2cc(C(=O)N3CCN([C@H]4C[C@](CC#N)(n5cc(-c6ncnc7[nH]ccc67)cn5)C4)CC3)nc(C(F)(F)F)n2)CCC1 [Example 63, {trans-3-(4-{[6-[1-(dimethylamino)cyclobutyl]-2-(trifluoromethyl)pyrimidin-4-yl]carbonyl}piperazin-1-yl)-1-[4-(7H-pyrrolo[2,3-d]pyrimidin-4-yl)-1H-pyrazol-1-yl]cyclobutyl}acetonitrile] | < 10 | 25 to 100 |
| CN(C)C1(c2cc(C(=O)N3CCN([C@H]4C[C@@](CC#N)(n5cc(-c6ncnc7[nH]ccc67)cn5)C4)CC3)nc(C(F)(F)F)n2)CCC1 [Example 64, {cis-3-(4-{[6-[1-(dimethylamino)cyclobutyl]-2-(trifluoromethyl)pyrimidin-4-yl]carbonyl}piperazin-1-yl)-1-[4-(7H-pyrrolo[2,3-d]pyrimidin-4-yl)-1H-pyrazol-1-yl]cyclobutyl}acetonitrile] | < 10 | 25 to 100 |
| CN(C)Cc1cc(C(=O)N2CCN([C@H]3C[C@](CC#N)(n4cc(-c5ncnc6[nH]ccc56)cn4)C3)CC2)nc(C(F)(F)F)c1 [Example 65, {trans-3-(4-{[4-[(dimethylamino)methyl]-6-(trifluoromethyl)pyridin-2-yl]carbonyl}piperazin-1-yl)-1-[4-(7H-pyrrolo[2,3-d]pyrimidin-4-yl)-1H-pyrazol-1-yl]cyclobutyl}acetonitrile] | < 10 | 25 to 100 |
| N#CC[C@]1(n2cc(-c3ncnc4[nH]ccc34)cn2)C[C@H](N2CCN(C(=O)c3cc(CO)cc(C(F)(F)F)n3)CC2)C1 [Example 66, {trans-3-(4-{[4-(hydroxymethyl)-6-(trifluoromethyl)pyridin-2-yl]carbonyl}piperazin-1-yl)-1-[4-(7H-pyrrolo[2,3-d]pyrimidin-4-yl)-1H-pyrazol-1-yl]cyclobutyl}acetonitrile] | < 10 | 25 to 100 |

Results, then the compound that gave them:

| IC50 [1] [nM] | IC50 (JAK2 (a.a. 828-1132)) [nM] | SMILES |
| --- | --- | --- |
| < 10 | 25 to 100 | N#CC[C@]1(n2cc(-c3ncnc4[nH]ccc34)cn2)C[C@H](N2CCN(C(=O)c3cc(CN)cc(C(F)(F)F)n3)CC2)C1 [Example 67, {trans-3-(4-{[4-(aminomethyl)-6-(trifluoromethyl)pyridin-2-yl]carbonyl}piperazin-1-yl)-1-[4-(7H-pyrrolo[2,3-d]pyrimidin-4-yl)-1H-pyrazol-1-yl]cyclobutyl}acetonitrile] |
| < 10 | 10 to 25 | CNCc1cc(C(=O)N2CCN([C@H]3C[C@](CC#N)(n4cc(-c5ncnc6[nH]ccc56)cn4)C3)CC2)nc(C(F)(F)F)c1 [Example 68, {trans-3-(4-{[4-[(methylamino)methyl]-6-(trifluoromethyl)pyridin-2-yl]carbonyl}piperazin-1-yl)-1-[4-(7H-pyrrolo[2,3-d]pyrimidin-4-yl)-1H-pyrazol-1-yl]cyclobutyl}acetonitrile] |
| < 10 | 25 to 100 | COC(C)(C)c1cc(C(=O)N2CCN([C@H]3C[C@](CC#N)(n4cc(-c5ncnc6[nH]ccc56)cn4)C3)CC2)nc(C(F)(F)F)n1 [Example 69, {trans-3-(4-{[6-(1-methoxy-1-methylethyl)-2-(trifluoromethyl)pyrimidin-4-yl]carbonyl}piperazin-1-yl)-1-[4-(7H-pyrrolo[2,3-d]pyrimidin-4-yl)-1H-pyrazol-1-yl]cyclobutyl}acetonitrile] |
| < 10 | < 10 | CNC1(c2cc(C(=O)N3CCN([C@H]4C[C@](CC#N)(n5cc(-c6ncnc7[nH]ccc67)cn5)C4)CC3)nc(C(F)(F)F)n2)CCC1 [Example 70, {trans-3-(4-{[6-[1-(methylamino)cyclobutyl]-2-(trifluoromethyl)pyrimidin-4-yl]carbonyl}piperazin-1-yl)-1-[4-(7H-pyrrolo[2,3-d]pyrimidin-4-yl)-1H-pyrazol-1-yl]cyclobutyl}acetonitrile] |
| < 10 | 25 to 100 | N#CC[C@]1(n2cc(-c3ncnc4[nH]ccc34)cn2)C[C@H](N2CCN(C(=O)c3cc(C#N)cc(C(F)(F)F)n3)CC2)C1 [Example 71, 2-[(4-{trans-3-(cyanomethyl)-3-[4-(7H-pyrrolo[2,3-d]pyrimidin-4-yl)-1H-pyrazol-1-yl]cyclobutyl}piperazin-1-yl)carbonyl]-6-(trifluoromethyl)isonicotinonitrile] |
| < 10 | 10 to 25 | N#CC[C@]1(n2cc(-c3ncnc4[nH]ccc34)cn2)C[C@H](N2CCN(C(=O)c3cc(C4(O)CCC4)nc(C(F)(F)F)n3)CC2)C1 [Example 72, {trans-3-(4-{[6-(1-hydroxycyclobutyl)-2-(trifluoromethyl)pyrimidin-4-yl]carbonyl}piperazin-1-yl)-1-[4-(7H-pyrrolo[2,3-d]pyrimidin-4-yl)-1H-pyrazol-1-yl]cyclobutyl}acetonitrile] |
| < 10 | 10 to 25 | N#CC[C@]1(n2cc(-c3ncnc4[nH]ccc34)cn2)C[C@H](N2CCN(C(=O)c3cc(C4=NCCN4)cc(C(F)(F)F)n3)CC2)C1 [Example 73, {trans-3-(4-{[4-(4,5-dihydro-1H-imidazol-2-yl)-6-(trifluoromethyl)pyridin-2-yl]carbonyl}piperazin-1-yl)-1-[4-(7H-pyrrolo[2,3-d]pyrimidin-4-yl)-1H-pyrazol-1-yl]cyclobutyl}acetonitrile] |
| < 10 | 10 to 25 | CN(C)Cc1cc(C(=O)N2CCN([C@H]3C[C@](CC#N)(n4cc(-c5ncnc6[nH]ccc56)cn4)C3)CC2)cc(C(F)F)c1 [Example 74, {trans-3-(4-{3-(difluoromethyl)-5-[(dimethylamino)methyl]benzoyl}piperazin-1-yl)-1-[4-(7H-pyrrolo[2,3-d]pyrimidin-4-yl)-1H-pyrazol-1-yl]cyclobutyl}acetonitrile] |
